Measured values taken from ChEMBL document CHEMBL1201862, “PubChem BioAssay data set” (2004).
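Cells were grown in 96-well plates and exposed to each compound for 48 hours at five concentrations; endpoints were interpolated linearly between bracketing concentrations, or set to the highest concentration if not reached. GI50 marks 50% less growth.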 Activity calls are given as the source filed them. No stated cut-off is given here; in the data, active = GI50 up to about 1.1 µM and inactive = higher.

Experiments:
Assay in all cases: NCI-60 cell line screen, 48 h
[1] = tested on: M14
[2] = tested on: K562
[3] = tested on: MDA-MB-231
[4] = tested on: OVCAR-5
[5] = tested on: MOLT-4
[6] = tested on: DU-145
[7] = tested on: SNB-75
[8] = tested on: CCRF-CEM
[9] = tested on: OVCAR-4
[10] = tested on: EKVX
[11] = tested on: MDA-MB-435
[12] = tested on: SF-539
[13] = tested on: T47D
[14] = tested on: IGROV-1
[15] = tested on: UACC-62
[16] = tested on: NCI/ADR-RES
[17] = tested on: NCI-H522
[18] = tested on: NCI-H23
[19] = tested on: Hs-578T
[20] = tested on: SR

| SMILES | GI50 [1] | GI50 [2] | GI50 [3] | GI50 [4] | GI50 [5] | GI50 [6] | GI50 [7] | GI50 [8] | GI50 [9] | GI50 [10] | GI50 [11] | GI50 [12] | GI50 [13] | GI50 [14] | GI50 [15] | GI50 [16] | GI50 [17] | GI50 [18] | GI50 [19] | GI50 [20] |
| --- | --- | --- | --- | --- | --- | --- | --- | --- | --- | --- | --- | --- | --- | --- | --- | --- | --- | --- | --- | --- |
| Cc1ccc([S+]([O-])(=Nc2ccccc2)C(C(C)C)C(C)(C)Cl)cc1 (stereo not given) | 18.9 µM (inactive) | 16.7 µM (inactive) | 17.2 µM (inactive) | 22.1 µM (inactive) | 10.5 µM (inactive) | > 50 µM (inactive) | > 50 µM (inactive) | 9.1 µM (inactive) | 22.2 µM (inactive) | 11.4 µM (inactive) | 10.7 µM (inactive) | 15.9 µM (inactive) | 23.6 µM (inactive) | > 50 µM (inactive) | 30.9 µM (inactive) | 15 µM (inactive) | 16 µM (inactive) | 9.91 µM (inactive) | 29.6 µM (inactive) | 16.1 µM (inactive) |
| CC1(C)CC(C)(C)C1=NNC(N)=O | > 100 µM (inactive) | > 100 µM (inactive) | > 100 µM (inactive) | > 100 µM (inactive) | > 100 µM (inactive) | > 100 µM (inactive) | > 100 µM (inactive) | > 100 µM (inactive) | > 100 µM (inactive) | > 100 µM (inactive) | > 100 µM (inactive) | > 100 µM (inactive) | > 100 µM (inactive) | > 100 µM (inactive) | > 100 µM (inactive) | > 100 µM (inactive) | > 100 µM (inactive) | > 100 µM (inactive) | > 100 µM (inactive) | > 100 µM (inactive) |
| CC(C(=O)[O-])S(=O)(=O)O.CCc1c2cc(OC)c(OC)cc2cc2c3cc(OC)c(OC)cc3cc[n+]12 | 51.1 µM (inactive) | 7.57 µM (inactive) | 20.1 µM (inactive) | 58.7 µM (inactive) | 20.4 µM (inactive) | 14.2 µM (inactive) | 7.94 µM (inactive) | 9.14 µM (inactive) | 10.2 µM (inactive) | 67.6 µM (inactive) | 4.27 µM (inactive) | 9.77 µM (inactive) | 5.11 µM (inactive) | 41.5 µM (inactive) | 7.91 µM (inactive) | 38.1 µM (inactive) | 3.09 µM (inactive) | 15.9 µM (inactive) | 4.81 µM (inactive) | 13.3 µM (inactive) |
| COc1ccc2c(c1)-c1c(c3ccccc3n1CCN1CCCCC1)CC2 | 5.47 µM (inactive) | 11.9 µM (inactive) | 14.3 µM (inactive) | 11.9 µM (inactive) | 15.9 µM (inactive) | 53.8 µM (inactive) | 14.8 µM (inactive) | 19.5 µM (inactive) | 25.6 µM (inactive) | 26.8 µM (inactive) | 24.9 µM (inactive) | 6.37 µM (inactive) | 18.9 µM (inactive) | 13.8 µM (inactive) | 16.3 µM (inactive) | 6.25 µM (inactive) | 14.6 µM (inactive) | 18.3 µM (inactive) | 9.82 µM (inactive) | 6.64 µM (inactive) |
| COC1=C2C=[N+](C)C3C(=C2C=CC1OC)Cc1cc2c(cc13)OCO2 (stereo not given) | 15.5 µM (inactive) | 6.93 µM (inactive) | 14.6 µM (inactive) | 18.2 µM (inactive) | 3.77 µM (inactive) | 14.5 µM (inactive) | 14.8 µM (inactive) | 6.37 µM (inactive) | 10.5 µM (inactive) | 17.9 µM (inactive) | 15.4 µM (inactive) | 11.8 µM (inactive) | 5.02 µM (inactive) | > 10 µM (inactive) | 7.6 µM (inactive) | 29.9 µM (inactive) | 4.32 µM (inactive) | 13 µM (inactive) | 13.7 µM (inactive) | 0.879 µM (active) |
| COc1ccc(C[C@H]2NC(=O)/C=C/C[C@@H]([C@H](C)[C@H]3O[C@@H]3c3ccccc3)OC(=O)[C@H](CC(C)C)OC(=O)[C@H](C)CNC2=O)cc1 | 1.72e-05 µM (active) | 9.27e-06 µM (active) | 4.49e-05 µM (active) | 3.94e-05 µM (active) | 2.85e-05 µM (active) | 2.96e-05 µM (active) | 1.47e-05 µM (active) | 1.75e-05 µM (active) | > 0.0001 µM (active) | 3.77e-05 µM (active) | 3.37e-06 µM (active) | 1.94e-05 µM (active) | > 0.0001 µM (active) | 3.24e-05 µM (active) | 6.71e-06 µM (active) | > 0.0001 µM (active) | 1.05e-05 µM (active) | 2.54e-05 µM (active) | 1.01e-05 µM (active) | 3.36e-06 µM (active) |
